The text below walks through data of patent US5554637A, “Use of leflunomide for inhibiting interleukin 1 alpha” (priority 1993, dated 1996).

“Also recorded” adds a separate entry of the source.

One data set has as its system IL1alpha. Description: IL1alpha synthesis and liberation in lipopolysaccharide-stimulated mononuclear cells from human blood (sandwich enzyme immuno test). Conditions: for activity at 10 µM: concentration 0.01 mmol/l; for activity at 100 µM: concentration 0.1 mmol/l; for effect on the IL1alpha level: summary in words of Table 1. It counts as cell-based. The procedure: The mononuclear cells from freshly isolated human citrate blood were enriched in accordance with known standard procedures (see Tiku et al., J. Immunol. 136/10 (1986) 3677):
10 ml of freshly prepared human citrate blood were carefully underlaid with 15 ml of Lynnphoprep^(R) (Molter GmbH, Heidelberg) and then centrifuged at 400 ×g for 40 min. at 20° C. The cell fraction which was visible as a white ring at the phase boundary was withdrawn with the aid of a syringe, diluted 1:1 (v/v) with PM-16 buffer (from Serva Feinbiochemica GmbH & Co. KG, Heidelberg) and then centrifuged, as above, for 10 min. The supernatant was washed with 10 ml of RPMI 1640 buffer (Gibco, Berlin) to which 300 mg/1 L-glutamine had previously been added. The washed cell fraction was taken up in 1 ml of RPMI 1640 to which 300 mg/1 L-glutamine, 25 mmol/1 HEPES (Gibco, Berlin), […] streptomycin and […] penicillin had previously been added. Using a cell counter (type IT, from Coulter Diagnostics, Krefeld), the cell suspension, which is composed of about 90% lymphocytes and 10% monocytes, was adjusted to about 5 million cells/mi. Cell viability was monitored before and after the inhibition experiments using the known lactate dehydrogenase method. In this case, no change in viability was observed.
The synthesis and liberation of cellular IL1alpha was induced by adding a solution of 500 ng of lipopolysaccharide (Salmonella abortus equi, Sigma GmbH, Deisenhofen) in 0.01 ml of dimethyl sulfoxide/water (1:10, v/v) to 0.48 ml of the above-described cell fraction. At the same time, a solution of leflunomide or leflunomide metabolite in 0.01 ml of dimethylsulfoxide (for the final concentration in each case, see Tab. 1) was added to the cell fraction and the mixture was left at 37° C. for 20 h in a commercially available incubator. After cooling down to 0° C., the samples were centrifuged for 1 min. in a bench centrifuge and in each case 0.025 ml aliquots of the supernatant were examined for their IL1alpha content using a "sandwich" enzyme immuno test kit (from Biermann GmbH, Bad Nauheim) in accordance with the manufacturer's instructions. The control values were determined without the addition of leflunomide or its metabolites and set at 100%. In particular, any possible influence of dimethyl sulfoxide on the IL1alpha level was excluded by appropriate comparative measurements.

A short description of data set [1]: metabolism of leflunomide under the conditions of the cell experiment (HPLC). It counts as in vitro ADME, human. Conditions: human, mononuclear cells; mononuclear cell fraction, incubation conditions of Example 1, HPLC.
For the next data set, the system named is mononuclear cells. The data set is described as above. Type of data set: in vitro ADME, human. Conditions: in words; isolated human mononuclear cells.
The subject of a further data set is cytokines. Briefly: synthesis and liberation of cytokines from human blood cells. Type of data set: cell-based. The following applies: in words. On the procedure:
The cell fraction which was visible as a white ring at the phase boundary was withdrawn with the aid of a syringe, diluted 1:1 (v/v) with PM-16 buffer (from Serva Feinbiochemica GmbH & Co. KG, Heidelberg) and then centrifuged, as above, for 10 min. […] Using a cell counter (type IT, from Coulter Diagnostics, Krefeld), the cell suspension, which is composed of about 90% lymphocytes and 10% monocytes, was adjusted to about 5 million cells/mi. Cell viability was monitored before and after the inhibition experiments using the known lactate dehydrogenase method.
At the same time, a solution of leflunomide or leflunomide metabolite in 0.01 ml of dimethylsulfoxide (for the final concentration in each case, see Tab. 1) was added to the cell fraction and the mixture was left at 37° C. for 20 h in a commercially available incubator. […] The control values were determined without the addition of leflunomide or its metabolites and set at 100%.

Setting [2] is: Homo sapiens, control without substance = 100%, LPS 500 ng, 37° C., 20 h, read-out: IL1alpha in the supernatant, % +/- standard deviation.

For orientation: half-life means the time needed for the level to fall by half in the phase considered. Read a low half-life as rapid decline. With `Cc1oncc1C(=O)Nc1ccc(C(F)(F)F)cc1` [Leflunomide, N-(4-trifluoromethylphenyl)-5-methylisoxazole-4-carboxamide], the activity at 0.1 µM in the data set with IL1alpha (Homo sapiens, concentration 0.0001 mmol/l, control without substance = 100%, LPS 500 ng, 37° C., 20 h, read-out: IL1alpha in the supernatant, % +/- standard deviation) was determined as 83 ± 16%. The activity at 5 µM with IL1alpha (Homo sapiens, concentration 0.005 mmol/l, control without substance = 100%, LPS 500 ng, 37° C., 20 h, read-out: IL1alpha in the supernatant, % +/- standard deviation) was 62%. In addition, in the data set on IL1alpha (setting [2]), the activity at 10 µM worked out at 54 ± 5% and the activity at 100 µM is 22 ± 5%. Moreover, the activity at 50 µM in the data set with IL1alpha (Homo sapiens, concentration 0.05 mmol/l, control without substance = 100%, LPS 500 ng, 37° C., 20 h, read-out: IL1alpha in the supernatant, % +/- standard deviation) worked out at 22 ± 2%. The “effect on the IL1alpha level” value in the data set with IL1alpha is given as “clearly lowered”. In data set [1], this molecule showed a half-life of around 10 h. In addition, the “metabolism of leflunomide under the experimental conditions” value with mononuclear cells is “did not, to any appreciable extent, metabolize the leflunomide to its metabolites; also recorded: metabolized only very slowly; also recorded: no appreciable metabolism”. In the data set on cytokines, the “effect on the synthesis and liberation of cytokines from human blood cells” value is reported as “strong inhibitory effect”.
Turning to `C/C(O)=C(\C#N)C(=O)Nc1ccc(C(F)(F)F)cc1` [Leflunomide metabolite, N-(4-trifluoromethylphenyl)-2-cyano-3-hydroxycrotonamide], in the data set with IL1alpha (setting [2]), the activity at 10 µM was 100 ± 5% and the activity at 100 µM is 98 ± 7%. Also, the “effect on the IL1alpha level” value in the data set with IL1alpha is recorded as “practically no effect on the IL1alpha level”. Besides, the “effect on the synthesis and liberation of cytokines from human blood cells” value in the data set with cytokines is on record as “does not exhibit this advantageous effect”.
